{
  "source": "patent USRE37950E1",
  "about": "“Biogradable in-situ forming implants and methods of producing the same” (priority 1990, dated 2002)",
  "key": {"[1]": {"experiment": "Release of drug from polymer/NMP formulation injected into dialysis tube, placed in pH 7 Sorenson's buffer receiving fluid at 37° C., UV at 237 nm", "format": "physicochemical", "conditions": "for cumulative fraction of drug released: Example 1: 2% by weight SaCl dispersion in DL-PLA oligomer/NMP 68:32"}, "[2]": {"experiment": "Concentration of SaCl in crevicular fluid from periodontal pocket of a greyhound dog (Periostrips, Periotron, liquid chromatograph)", "conditions": "other: inserted into the periodontal pocket"}},
  "data": [
    {"smiles": "C[n+]1cc2c3c(ccc2c2ccc4cc5c(cc4c21)OCO5)OCO3", "note": "[SaCl, Sanguinarine chloride]", "values": [
      {"measurement": "cumulative fraction of drug released", "setting": "[1]; after 2 days", "value": "~72", "unit": "%"},
      {"measurement": "cumulative fraction of drug released", "setting": "[1]; after 5 days", "value": "~85", "unit": "%"},
      {"measurement": "cumulative fraction of drug released", "setting": "[1]; after 9 days", "value": "~90", "unit": "%"},
      {"measurement": "cumulative fraction of drug released", "setting": "[1]; after 14 days", "value": "~97", "unit": "%"},
      {"measurement": "cumulative fraction of drug released", "setting": "[1]; first day", "value": "Approximately 60%"},
      {"measurement": "drug released", "setting": "[1]; Example 3: 1.5% by weight SaCl dispersion in 40% by weight poly(DL-lactide) (MW 2,000) in NMP, after 2 days", "value": "~40", "unit": "%"},
      {"measurement": "drug released", "setting": "[1]; Example 3: 1.5% by weight SaCl dispersion in 40% by weight poly(DL-lactide) (MW 2,000) in NMP, after 5 days", "value": "~45", "unit": "%"},
      {"measurement": "drug released", "setting": "[1]; Example 3: 1.5% by weight SaCl dispersion in 40% by weight poly(DL-lactide) (MW 2,000) in NMP, after 15 days", "value": "~50", "unit": "%"},
      {"measurement": "drug released", "setting": "[1]; Example 3: 1.5% by weight SaCl dispersion in 40% by weight poly(DL-lactide) (MW 2,000) in NMP, after the first day", "value": "approximately 32%"},
      {"measurement": "drug released", "setting": "[1]; Example 6: 2% by weight SaCl dispersion in 70% by weight 50:50 DL-PLG (MW 1500) in NMP, after 2 days", "value": "approximately 7%"},
      {"measurement": "drug released", "setting": "[1]; Example 6: 2% by weight SaCl dispersion in 70% by weight 50:50 DL-PLG (MW 1500) in NMP, after 5 days", "value": "~10", "unit": "%"},
      {"measurement": "drug released", "setting": "[1]; Example 6: 2% by weight SaCl dispersion in 70% by weight 50:50 DL-PLG (MW 1500) in NMP, after 7 days", "value": "~12", "unit": "%"},
      {"measurement": "drug released", "setting": "[1]; Example 6: 2% by weight SaCl dispersion in 70% by weight 50:50 DL-PLG (MW 1500) in NMP, after 14 days", "value": "~16", "unit": "%"},
      {"measurement": "concentration at 3 days", "setting": "[2]", "value": 63.2, "unit": "µg/mL"},
      {"measurement": "concentration at 7 days", "setting": "[2]", "value": 80.2, "unit": "µg/mL"},
      {"measurement": "concentration at 10 days", "setting": "[2]", "value": 67.8, "unit": "µg/mL"},
      {"measurement": "concentration at 14 days", "setting": "[2]", "value": 70.5, "unit": "µg/mL"}
    ]},
    {"smiles": "CCOC1c2c(ccc3c2OCO3)-c2ccc3cc4c(cc3c2N1C)OCO4", "note": "(stereo not shown) [SaEt, Ethoxydihydrosanguinarine]", "values": [
      {"measurement": "drug released", "setting": "[1]; Example 2: SaEt dissolved in DL-PLA oligomer/NMP solution of Example 1, after 2 days", "value": "~52", "unit": "%"},
      {"measurement": "drug released", "setting": "[1]; Example 2: SaEt dissolved in DL-PLA oligomer/NMP solution of Example 1, after 5 days", "value": "~60", "unit": "%"},
      {"measurement": "drug released", "setting": "[1]; Example 2: SaEt dissolved in DL-PLA oligomer/NMP solution of Example 1, after 9 days", "value": "~70", "unit": "%"},
      {"measurement": "drug released", "setting": "[1]; Example 2: SaEt dissolved in DL-PLA oligomer/NMP solution of Example 1, after 14 days", "value": "~80", "unit": "%"},
      {"measurement": "drug released", "setting": "[1]; Example 2: SaEt dissolved in DL-PLA oligomer/NMP solution of Example 1, after the first day", "value": "approximately 45%"},
      {"measurement": "drug released", "setting": "[1]; Example 4: 1.5% by weight SaEt solution in 40% by weight DL-PLA (MW 2,000) in NMP, after 2 days", "value": "~14", "unit": "%"},
      {"measurement": "drug released", "setting": "[1]; Example 4: 1.5% by weight SaEt solution in 40% by weight DL-PLA (MW 2,000) in NMP, after 5 days", "value": "~20", "unit": "%"},
      {"measurement": "drug released", "setting": "[1]; Example 4: 1.5% by weight SaEt solution in 40% by weight DL-PLA (MW 2,000) in NMP, after 9 days", "value": "~23", "unit": "%"},
      {"measurement": "drug released", "setting": "[1]; Example 4: 1.5% by weight SaEt solution in 40% by weight DL-PLA (MW 2,000) in NMP, after 14 days", "value": "~28", "unit": "%"},
      {"measurement": "drug released", "setting": "[1]; Example 4: 1.5% by weight SaEt solution in 40% by weight DL-PLA (MW 2,000) in NMP, after the first day", "value": "approximately 8%"},
      {"measurement": "release rate", "setting": "[1]; Example 7: 2% by weight SaEt solution in 70% by weight 50:50 DL-PLG in NMP", "value": "identical to that for SaCl described in Example 6"}
    ]}
  ]
}
